# Data: ChEMBL document CHEMBL3817793, “Recent Progress in the Discovery of Next Generation Inhibitors of Aromatase from the Structure-Function Perspective” (J Med Chem, 2016)
# What was measured:
# [1] = molecular target: T1, Aromatase (Homo sapiens, UniProt P11511); assay: Inhibition of human placental microsomal aromatase using [1beta-3H] androstenedione as substrate assessed as tritiated H2O release after 15 mins by liquid scintillation counting method
# T1 sequence (P11511 whole entry): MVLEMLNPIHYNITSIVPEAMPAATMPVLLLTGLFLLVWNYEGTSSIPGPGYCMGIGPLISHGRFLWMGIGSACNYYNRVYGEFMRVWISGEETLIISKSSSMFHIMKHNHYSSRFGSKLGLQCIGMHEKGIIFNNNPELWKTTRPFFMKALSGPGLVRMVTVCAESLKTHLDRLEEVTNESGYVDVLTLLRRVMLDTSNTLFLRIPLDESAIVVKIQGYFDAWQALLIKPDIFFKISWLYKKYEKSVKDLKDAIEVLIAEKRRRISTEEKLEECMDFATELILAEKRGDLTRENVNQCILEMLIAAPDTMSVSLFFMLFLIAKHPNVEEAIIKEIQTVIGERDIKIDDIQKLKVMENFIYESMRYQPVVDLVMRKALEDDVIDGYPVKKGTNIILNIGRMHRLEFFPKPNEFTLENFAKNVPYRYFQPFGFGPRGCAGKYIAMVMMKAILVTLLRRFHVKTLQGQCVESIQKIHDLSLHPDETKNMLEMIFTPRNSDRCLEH
# [2] = molecular target: T1, Aromatase; assay: Inhibition of human placental microsomal aromatase using testosterone as substrate assessed as formation of estradiol after 10 mins
# [3] = molecular target: T1, Aromatase; assay: Inhibition of human placental microsomal aromatase using [1beta-3H] androstenedione as substrate assessed as tritiated H2O release preincubated for 5 mins followed by protein addition measured after 20 mins by beta counting method
# [4] = molecular target: T1, Aromatase; assay: Inhibition of particulate fractions of human breast cancer derived aromatase
# [5] = molecular target: T1, Aromatase; assay: Inhibition of human aromatase using testosterone as substrate incubated for 1 hr by HTRF assay
# [6] = molecular target: T1, Aromatase
# Description: Competitive inhibition of human placental microsomal aromatase using androgen as substrate
smiles,measurement,setting,value
C=CC[C@@H]1CC2=CC(=O)CC[C@]2(C)[C@H]2CC[C@]3(C)C(=O)CC[C@H]3[C@H]12,IC50,[1],590 nM
C=CC[C@@H]1CC2=CCCC[C@]2(C)[C@H]2CC[C@]3(C)C(=O)CC[C@H]3[C@H]12,IC50,[1],750 nM
CC/C(=C(\c1ccc(O)cc1)c1ccc(OCCN(C)C)cc1)c1ccccc1 [AFIMOXIFENE],IC50,[2],530000 nM
C[C@]12Cc3cc[nH]c3C(=O)[C@@H]1CC[C@@H]1[C@@H]2CC[C@]2(C)[C@@H](O)CC[C@@H]12,IC50,[3],512 nM
C[C@]12CCC(=O)C(O)=C1CC[C@@H]1[C@@H]2CC[C@]2(C)C(=O)CC[C@@H]12 [FORMESTANE],IC50,[4],30 nM
Fc1ccc(-c2cc(-n3cccc3)c3ccccc3n2)cc1,IC50,[5],800 nM
C=CC[C@@H]1CC2=CC(=O)C=C[C@]2(C)[C@H]2CC[C@]3(C)[C@@H](O)CC[C@H]3[C@H]12,IC50,[1],450 nM
COc1ccc2c(Cc3ccccc3)c(-c3ccc(Cl)cc3)c(=O)oc2c1,Ki,[6],84 nM
